Data: US10588978B2, “Pharmaceutical composition containing imidazoline derivative” (priority 2016, dated 2020)
pIC50: −log10 of the molar value. Where two headings read alike, the source gives them in different places.

Legend:
[1] = tested on: five major subtypes of CYP450; conditions: all five subtypes; read-out: inhibition half lives on five major subtypes of CYP450; cited from earlier work
[2] = mice; relative to MDV-3100; cited from earlier work
[3] = biological target: T1, AR (Homo sapiens, UniProt P10275); conditions: cited from earlier work
T1 sequence (P10275 1-920): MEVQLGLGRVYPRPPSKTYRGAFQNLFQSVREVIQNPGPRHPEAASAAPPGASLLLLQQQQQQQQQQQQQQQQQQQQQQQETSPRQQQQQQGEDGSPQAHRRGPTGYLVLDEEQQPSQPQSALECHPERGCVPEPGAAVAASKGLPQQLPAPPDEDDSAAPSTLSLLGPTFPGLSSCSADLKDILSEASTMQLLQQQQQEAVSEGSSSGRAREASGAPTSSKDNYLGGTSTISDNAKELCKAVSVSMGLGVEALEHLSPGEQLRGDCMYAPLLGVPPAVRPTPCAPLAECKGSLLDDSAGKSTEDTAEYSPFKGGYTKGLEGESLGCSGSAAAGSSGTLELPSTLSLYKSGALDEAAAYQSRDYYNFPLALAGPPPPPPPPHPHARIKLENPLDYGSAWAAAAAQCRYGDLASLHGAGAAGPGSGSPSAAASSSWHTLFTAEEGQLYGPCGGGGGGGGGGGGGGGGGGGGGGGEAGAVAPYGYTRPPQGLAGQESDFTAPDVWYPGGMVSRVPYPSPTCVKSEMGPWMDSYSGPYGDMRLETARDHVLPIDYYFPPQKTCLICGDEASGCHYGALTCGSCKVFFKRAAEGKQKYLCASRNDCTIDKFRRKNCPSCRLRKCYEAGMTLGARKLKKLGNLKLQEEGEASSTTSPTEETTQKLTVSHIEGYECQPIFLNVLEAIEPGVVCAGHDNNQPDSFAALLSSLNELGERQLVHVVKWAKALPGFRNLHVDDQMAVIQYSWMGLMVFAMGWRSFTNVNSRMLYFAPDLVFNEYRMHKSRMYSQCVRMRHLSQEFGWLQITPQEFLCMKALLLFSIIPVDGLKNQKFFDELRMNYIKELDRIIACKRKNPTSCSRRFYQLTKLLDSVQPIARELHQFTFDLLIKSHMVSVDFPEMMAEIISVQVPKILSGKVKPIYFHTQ

[4] = biological target: T1, AR; conditions: cited from earlier work; remark: listed apart in the source
[5] = same dose, same solvent; cited from earlier work
[6] = Studies on stability of the compound; format: physicochemical
[7] = same dose, same solvent; cited from earlier work; remark: listed apart in the source
[8] = Solubility of the compound in compositions with conventional auxiliaries; format: physicochemical
[9] = tested on: AIPC; conditions: human; cited from earlier work
[10] = tested on: tumor cell growth; conditions: cited from earlier work
[11] = tested on: AIPC; conditions: mouse; cited from earlier work

| SMILES | pIC50 [1] | ratio of the drug concentration in brain tissue to the drug concentration in plasma [2] | AR agonist activity ([3]; at 3 μM) | AR agonist activity ([3]; at 10 μM) | activity in vitro relative to MDV-3100 [4] | in vivo exposure in rats relative to MDV-3100 [5] | stability of the compound [6] | in vivo exposure in dogs relative to MDV-3100 [7] | solubility in compositions prepared with conventional auxiliaries [8] | inhibition of growth of AIPC [9] | effect of promoting tumor cell growth [10] | inhibition of growth of AIPC [11] |
| --- | --- | --- | --- | --- | --- | --- | --- | --- | --- | --- | --- | --- |
| CC1(C)C(=O)N(c2ccc(C#N)c(C(F)(F)F)c2)C(=S)N1c1ccc(OC[C@@H](O)CO)cc1 [compound of formula (I), (S)-4-(3-(4-(2,3-dihydroxypropoxy)phenyl)-4,4-dimethyl-5-carbonyl-2-thioimidazolin-1-yl)-2-(trifluoromethyl)benzonitrile] | < 4.30 | much lower than that of MDV-3100 | no AR agonist activity | no AR agonist activity | slightly better than that of MDV-3100 | comparable to that of MDV-3100 | poor stability | more than six times that of MDV-3100 | poorly soluble | – | – | – |
| CNC(=O)c1ccc(N2C(=S)N(c3ccc(C#N)c(C(F)(F)F)c3)C(=O)C2(C)C)cc1F [MDV-3100] | – | – | – | – | – | – | – | – | – | can inhibit the growth of AIPC | no effect of promoting tumor cell growth | can inhibit the growth of AIPC |
